# Where two headings read alike, the source gives them in different places.
# Columns and labels:
# [1] = test system: corneal endothelium; conditions: for Cell count Exp, drug eye / Cell count Exp, drug/Vehicle / Cell count Exp, drug−Vehicle / Cell count Exp/BL, drug eye / Cell count Exp/BL, drug/Vehicle / Cell count Exp/BL, drug−Vehicle: n=4
# [2] = test system: living monkey eyes; assay: Intraocular pressure by Goldmann applanation tonometry; format: in vivo, cynomolgus monkeys (Macaca fascicularis); conditions: for time to IOP reduction after administration: living monkeys, topical
# Procedure: The intraocular pressure (IOP) was determined with a “minified” Goldmann applanation tonometer (Kaufman and Davis, Arch. Ophthalmol., 98:542-546[1980]), using “Half and Half®” creamer solution (Borden) as the tear film indicator (Croft et al., in Lakshminarayanan (ed.), Basic and Clinical Applications of Vision Science, Dordtecht, Kluwer, [1997], pp. 213-216), with the monkey lying prone in a head holder and the eyes positioned 4 to 8 cm above the heart. All monkeys were examined by slit-lamp before the first IOP measurement in each protocol. For each eye, two or three IOP measurements were averaged as a baseline.
# After baseline IOP was measured, 21 or 42 μg LAT-A or 4 μg LAT-B were administered to the central cornea of supine monkeys in one eye and the vehicle to the opposite eye. Blinking was prevented with lid speculums during and for 5 min. after drug administration (taking care to avoid touching the globe), to maximize drug penetration into the AC and minimize systemic absorption. Following drug administration, the speculums were gently removed and the monkeys were kept in the supine position for another 15 min to further facilitate penetration of drug/vehicle solution into the AC. For LAT-A, IOP was then measured every hr for 7 to 9 hr beginning 1, 6, or 15 hr after the 21 gg dose, or beginning 1 or 6 hr after the 42 μg dose, and again at 24 hr. Each protocol included two groups of monkeys. Group one (6 monkeys) underwent IOP measurement from 1-9 hr and again at 24 hr after the drug; group two (6 monkeys) were measured from 6-13 hr for both doses and again from 15 hr-21 hr on a separate occasion for the 21 μg dose. For both doses, one monkey in group one was used again in group two; therefore its two readings measured at baseline or the period 6-9 hr after the drug on the two different occasions was averaged for data analysis. Thus, “n” for baseline and the period 6-9 hr post-drug is 11 rather than 12. During intervals between the post-drug reading at 9 hr and that at 24 hr for group one or between the drug administration and the first post-drug reading at 6 hr for group two, the animals were returned to the Animal Care Unit for recovery. For LAT-B, IOP was measured every hr for 6 hr beginning 1 hr after the 4 μg dose, and again at 24 hr. The animals were returned to the Animal Care Unit for recovery between the measurements at 6 hr and 24 hr. Anterior segments were examined by slit-lamp at 3, 6, 10 or 24 hr after LAT-A, or at 1, 3, 6 or 24 hr after LAT-B.
# [3] = test system: living monkey eye; conditions: in vivo
# [4] = test system: living monkey eyes; assay: Slit lamp biomicroscopy (ocular tolerability); format: in vivo, cynomolgus monkeys (Macaca fascicularis); conditions: for corneal endothelial cell borders: one to 5 hr after topical drug
# [5] = test system: living monkey eyes; assay: Slit lamp biomicroscopy (ocular tolerability); format: in vivo, cynomolgus monkeys (Macaca fascicularis); conditions: for lens appearance: after topical drug; for corneal epithelium at slit lamp: topical LAT-A (21 or 42 μg) or LAT-B (4 μg) in 25% DMSO; for eyes that developed flare (1-2+ on a scale of 0-4+): topical, recovered by 24-48 hr
# Procedure: e) Ocular Tolerability/Toxicity: Ocular exams, including slit lamp biomicroscopy (Zeiss or Haag-Streit), gonioscopy, and binocular indirect ophthalmoscopy (American Optical or Keeler), were performed by a trained ophthalmologist, using when necessary contact lenses specially fabricated for the small monkey eye (Kaufman and Wallow, Exp. Eye Res., 40:883-885[1985]). In addition, specular microscopy was used to evaluate drug effects on the corneal endothelium.
# The AC of both eyes of was cannulated with a branched needle as above, after which baseline facility measurements were taken for 35-45 min. With reservoirs closed, 2×5 μl drops of 200 μM (˜0.8 μg) or 4×5 μl drops of 500 μM (˜4.0 μg) LAT-B were given to one eye of the prone monkey, allowing 60-90 sec between drops. […] Vehicle (10 or 25% DMSO respectively) was given simultaneously to the opposite eye in a similar manner. The doses were chosen to give […] and 1 μM LAT-B concentrations respectively in the 100 μl monkey AC (See e.g., Erickson-Lamy et al., Arch. Opthalmol., 102:1815-1820[1984]), assuming 1% penetration and no initial drug loss from the AC (Asseff et al., Amer. J. Ophthalmol., 75:212-215[1973]; Harris, in Leopold (ed.), Symposium on Ocular Therapy, C. V. Mosby, St. Louis, Mo., [1968], pp. 96-105; Janes and Stiles, Arch. Ophthahnol., 62:69-74[1959]). The perfusion system remained closed for 2 hr, after which facility measurements were taken for 90 min. Biomicroscopy was performed by an ophthalmologist before and 3, 7 and 14 days after drug administration.
# For slit lamp biomicroscopy, a trained ophthalmologist examined all eyes by slit lamp, for integrity of the corneal epithelium and endothelium, presence of flare or cells in the anterior chamber and clarity of the lens. All animals were free of ocular abnormalities when studied.
structure (smiles),measurement,setting,value
C/C1=C/C(=O)O[C@@H]2C[C@@H](CC[C@H](C)/C=C\C=C\CC1)O[C@@](O)([C@@H]1CSC(=O)N1)C2 [LAT-A],"Cell count Exp, drug eye","[1]; 21 μg LAT-A topical, 3 days",2488 ± 63 cell per square millimeter
same,"Cell count Exp, drug/Vehicle","[1]; 21 μg LAT-A topical, 3 days",1.02 ± 0.03
same,"Cell count Exp, drug−Vehicle","[1]; 21 μg LAT-A topical, 3 days",44 ± 62 cell per square millimeter
same,"Cell count Exp/BL, drug eye","[1]; 21 μg LAT-A topical, 3 days",0.98 ± 0.01
same,"Cell count Exp/BL, drug/Vehicle","[1]; 21 μg LAT-A topical, 3 days",1.06 ± 0.02
same,"Cell count Exp/BL, drug−Vehicle","[1]; 21 μg LAT-A topical, 3 days",0.05 ± 0.10
same,"Cell count Exp, drug eye","[1]; 21 μg LAT-A topical, 7 days",2488 ± 97 cell per square millimeter
same,"Cell count Exp, drug/Vehicle","[1]; 21 μg LAT-A topical, 7 days",0.98 ± 0.06
same,"Cell count Exp, drug−Vehicle","[1]; 21 μg LAT-A topical, 7 days",−69 ± 140 cell per square millimeter
same,"Cell count Exp/BL, drug eye","[1]; 21 μg LAT-A topical, 7 days",0.98 ± 0.03
same,"Cell count Exp/BL, drug/Vehicle","[1]; 21 μg LAT-A topical, 7 days",1.02 ± 0.08
same,"Cell count Exp/BL, drug−Vehicle","[1]; 21 μg LAT-A topical, 7 days",0.01 ± 0.07
same,"Cell count Exp, drug eye","[1]; 21 μg LAT-A topical, 14 days",2694 ± 28 cell per square millimeter
same,"Cell count Exp, drug/Vehicle","[1]; 21 μg LAT-A topical, 14 days",1.01 ± 0.06
same,"Cell count Exp, drug−Vehicle","[1]; 21 μg LAT-A topical, 14 days",0 ± 147 cell per square millimeter
same,"Cell count Exp/BL, drug eye","[1]; 21 μg LAT-A topical, 14 days",1.06 ± 0.03
same,"Cell count Exp/BL, drug/Vehicle","[1]; 21 μg LAT-A topical, 14 days",1.04 ± 0.03
same,"Cell count Exp/BL, drug−Vehicle","[1]; 21 μg LAT-A topical, 14 days",0.04 ± 0.03
same,cell densities vs baseline,"[1]; 21 μg LAT-A, day 3",essentially the same as at baseline
same,cell densities vs baseline or contralateral eyes,"[1]; 42 μg LAT-A, day 3",slightly (but not significantly) lower cell densities than baseline or contralateral eyes
same,cell density and morphology,"[1]; LAT-A either dose, day 7",cell density and morphology had returned to baseline
same,countability of corneal endothelial cells,"[1]; either dose of LAT-A (21 or 42 μg), 1 or 3 hr",could not be counted
same,period of lowered IOP after drug administration,[2]; 21 μg LAT-A topical,5 to 10 h
same,maximal IOP decrease below baseline,"[2]; 21 μg LAT-A topical, at 8 hr, n=11",3.48±1.29 mmHg
same,period of lowered IOP after drug administration,[2]; 42 μg LAT-A topical,6 to 13 h
same,maximal IOP reduction below baseline,"[2]; 42 μg LAT-A topical, at 9 hr, n=11",4.60±1.61 mmHg
same,time to IOP reduction after administration,[2],6 h
same,"BL2/BL1, Rx eye",[3],1.24 ± 0.19
same,"BL2/BL1, Rx/Cont",[3],1.12 ± 0.15
same,"Baseline facility BL2, Rx eye",[3],0.42 ± 0.06 μl/min/mmHg
same,"Baseline facility BL2, Rx/Cont",[3],1.07 ± 0.17
same,effect on facility,[3],probably ineffective
same,reversibility of the facility-effect,[3],minimal
same,recovery of endothelial refractile spots,[4]; higher dose of LAT-A (42 μg),most recovered by 10 hr
same,recovery of endothelial refractile spots,[4]; lower dose of LAT-A (21 μg),recovered almost completely by 6 hr
same,corneal endothelial cell borders,[4],indistinct
same,lens appearance,[5],always appeared normal
same,corneal epithelium at slit lamp,[5],mild transient corneal epithelial cloudiness
same,eyes that developed flare (1-2+ on a scale of 0-4+),[5],Four LAT-A- treated eyes
C/C1=C/C(=O)O[C@@H]2C[C@@H](CC[C@H](C)/C=C\CC1)O[C@@](O)([C@@H]1CSC(=O)N1)C2 [LAT-B],"Cell count Exp, drug eye","[1]; 42 μg LAT-A topical, 3 days",2188 ± 430 cell per square millimeter
same,"Cell count Exp, drug/Vehicle","[1]; 42 μg LAT-A topical, 3 days",0.86 ± 0.11
same,"Cell count Exp, drug−Vehicle","[1]; 42 μg LAT-A topical, 3 days",−281 ± 248 cell per square millimeter
same,"Cell count Exp/BL, drug eye","[1]; 42 μg LAT-A topical, 3 days",0.83 ± 0.14
same,"Cell count Exp/BL, drug/Vehicle","[1]; 42 μg LAT-A topical, 3 days",0.80 ± 0.11
same,"Cell count Exp/BL, drug−Vehicle","[1]; 42 μg LAT-A topical, 3 days",−0.18 ± 0.10
same,"Cell count Exp, drug eye","[1]; 42 μg LAT-A topical, 7 days",2494 ± 166 cell per square millimeter
same,"Cell count Exp, drug/Vehicle","[1]; 42 μg LAT-A topical, 7 days",1.04 ± 0.03
same,"Cell count Exp, drug−Vehicle","[1]; 42 μg LAT-A topical, 7 days",94 ± 68 cell per square millimeter
same,"Cell count Exp/BL, drug eye","[1]; 42 μg LAT-A topical, 7 days",0.94 ± 0.04
same,"Cell count Exp/BL, drug/Vehicle","[1]; 42 μg LAT-A topical, 7 days",0.96 ± 0.02
same,"Cell count Exp/BL, drug−Vehicle","[1]; 42 μg LAT-A topical, 7 days",−0.04 ± 0.02
same,"Cell count Exp, drug eye","[1]; 42 μg LAT-A topical, 14 days",2581 ± 143 cell per square millimeter
same,"Cell count Exp, drug/Vehicle","[1]; 42 μg LAT-A topical, 14 days",1.03 ± 0.05
same,"Cell count Exp, drug−Vehicle","[1]; 42 μg LAT-A topical, 14 days",75 ± 108 cell per square millimeter
same,"Cell count Exp/BL, drug eye","[1]; 42 μg LAT-A topical, 14 days",0.98 ± 0.02
same,"Cell count Exp/BL, drug/Vehicle","[1]; 42 μg LAT-A topical, 14 days",0.95 ± 0.03
same,"Cell count Exp/BL, drug−Vehicle","[1]; 42 μg LAT-A topical, 14 days",−0.05 ± 0.03
same,"maximal IOP reduction, adjusted for baseline and contralateral control eyes","[2]; 4 μg LAT-B topical, 6 hr, n=8",3.1±1.2 mmHg
same,IOP,"[2]; 4 μg LAT-B topical, at 6 hr (from 17 mmHg)",13.5 mmHg
same,IOP,"[2]; 4 μg LAT-B topical, within 1 hr (from 17 mmHg)",15 mmHg
same,time to IOP reduction after administration,[2],≤ 1 h
same,"BL2/BL1, LAT-B eye",[3],0.90 ± 0.05
same,"BL2/BL1, LAT-B/Veh",[3],0.96 ± 0.06
same,"Baseline facility BL2, LAT-B eye",[3],0.33 ± 0.03 μl min^−1 mmHg^−1
same,"Baseline facility BL2, LAT-B/Veh",[3],1.01 ± 0.08
same,baseline facility vs baseline immediately prior to LAT-B,[3],not significantly different
same,"facility increase, average over 90 min",[3],456±128%
same,initial post-drug facility increase over final baseline value,[3],379±125%
same,potency relative to LAT-A in the live monkey TM,[3],at least 10 fold
same,corneal endothelial cell borders,[4],indistinct
same,recovery of corneal endothelium,[5]; 4 μg LAT-B,"by 6 hr, the corneal endothelium of almost all treated eyes had recovered"
same,biomicroscopy findings,"[5]; LAT-B 0.8 μg topical, 3 days after drug and AC perfusion",no adverse effects
same,biomicroscopy findings,"[5]; LAT-B 4.0 μg topical, day 3 after perfusion",two drug-treated eyes exhibited a small clot of blood in the AC
same,biomicroscopy findings,"[5]; LAT-B topical, day 7",all eyes appeared biomicroscopically normal
same,lens appearance,[5],always appeared normal
same,corneal epithelium at slit lamp,[5],mild transient corneal epithelial cloudiness
same,eyes that developed flare (1-2+ on a scale of 0-4+),[5],one LAT-B-treated eye
